test system: MT4; assay: Tested for inhibitory activity against HIV in whole cell assay (MT-4, RF strain of HIV-1) at a 100 ug/ ml); Inactive and Not toxic; assay type: functional, cell-based; details: Homo sapiens

Q: With `Cc1cn(N2CCC(CO)C2)c(=O)[nH]c1=O` (stereo not drawn) as the compound, how does the Activity read?
A: Non-toxic

Q: With `Nc1ccn(N2CCC(CO)C2)c(=O)n1` (stereo not drawn) as the compound, how does the Activity read?
A: Non-toxic

Q: `O=c1ccn(N2CCC(CO)C2)c(=O)[nH]1` (stereo not drawn) was tested. Which Activity did it give?
A: Non-toxic

— ChEMBL document CHEMBL1125974, “Synthesis of (+/)1-Aza-carbocyclic-pyrimidine-2,3-dideoxynucleoside analogues as potential anti-HIV agents” (Bioorg Med Chem Lett, 1991)
